Assay type in all cases: cell-based, human
Assay [1] concerns IL-1 beta production by PBMC. The assay can be described thus: IL-1 beta assay, LPS-stimulated PBMC, sandwich ELISA. The protocol: (§1) All reagents were dissolved in 0.5 ml dimethylsulfoxide (hereinafter referred as DMSO) and further diluted in culture medium before use for the following in vitro experiments. The commercially available culture medium consisted of RPMI-1640+10% foetal calf serum (FCS). Peripheral blood mononuclear cells (herein referred as PBMC), in response to stimulation by lipopolysaccharide (LPS), a gram-negative bacterial endotoxin, produce various […], in particular human TNF-alpha and II-1 beta. The inhibition of the activation of PBMC can be measured by the level of suppression of the production of TNF-alpha or IL-1 beta by PBMC in response to stimulation by LPS. Such inhibition measurement was performed as follows: PBMC were isolated from heparinized peripheral blood (Buffy coat) by density gradient centrifugation. LPS is then added to the PMBC suspension in complete medium (10^6 cells/ml) at a final concentration of 1 μg/ml. The compound to be tested was added at different dilution levels, and the cells were incubated at 37° C. for 72 hours. The supernatants were collected, and TNF-alpha or II-1 beta concentrations were measured with respectively an anti-TNF antibody or an anti-IL-1 beta antibody in a sandwich ELISA. The percent inhibition was calculated as: % inhibition=(pg/ml in sample−pg/ml min.)/(pg/ml max.−pg/ml min.)−1 wherein: min.: pg/ml in culture medium without test compound, and • max.: pg/ml in culture medium+LPS without test compound.
(In general: ELISA stands for enzyme-linked immunosorbent assay.)

In assay [2] the test system is peripheral blood mononuclear cells (PBMC). The assay can be described thus: Mixed lymphocyte reaction (MLR) test. The method, then:
All reagents were dissolved in 0.5 ml dimethylsulfoxide (hereinafter referred as DMSO) and further diluted in culture medium before use for the following in vitro experiments. The commercially available culture medium consisted of RPMI-1640+10% foetal calf serum (FCS). Peripheral blood mononuclear cells (hereinafter referred as PBMC) were isolated from heparinized peripheral blood by density gradient centrifugation over Lymphoprep (Nycomed, Maorstua, Norway). Allogeneic PBMC or […]-Barr Virus-transformed human B cells [commercially available under the trade name RPMI1788 (ATCC name CCL156)] which strongly express B7-1 and B7-2 antigens were used as stimulator cells after irradiation with 30 Gy. MLR was performed in triplicate wells. After 5 days incubation at 37° C., 1 μCi [^3H]-thymidine was added to each cup. After a further 16 hours incubation, cells were harvested and counted in a β-counter. Inhibition of proliferation by a compound (drug) described in some of the previous examples was counted using the formula: [formula] wherein cpm is the thymidine count per minute. TNF-Alpha and IL-1 Beta Assays

Assay [3] concerns TNF-alpha production by PBMC. Description: TNF-alpha assay, LPS-stimulated PBMC, sandwich ELISA. The method, then: as §1
Where [4] appears, read: Table 7, same conditions as example 26, read-out: IL1β IC50.
Where [5] appears, read: Table 7, same conditions as example 26.
Setting [6] is: Table 7, same conditions as example 26, read-out: TNFα IC50.
[7] abbreviates: Table 2, LPS 1 μg/ml, 72 hours, read-out: IL-1 IC50.
[8] abbreviates: Table 2, [3H]-thymidine incorporation after 5 days incubation.
The mark [9] stands for this setting: Table 2, LPS 1 μg/ml, 72 hours, read-out: TNF IC50.

Molecules are shown by their SMILES. Read-outs that look alike come from different tables or passages of the source.

As to `Cn1c(=O)n(CCN2CCCC2)c(=O)c2nc(-c3ccccc3)c(Cl)nc21` [Example 78, 7-chloro-1-methyl-6-phenyl-3-(2-pyrrolidinoethyl)-lumazine], the figures for the IC50 in assay [1] (setting [4]), in assay [2] (setting [5]) and in assay [3] (setting [6]) were 800 nM, 4400 nM and 7400 nM, respectively.
In the case of `Cn1c(=O)n(CCCC(=O)OC(C)(C)C)c(=O)c2nc(-c3ccccc3)c(Cl)nc21` [Example 89, 7-chloro-3-(t-butyl butyrate)-1-methyl-6-phenyl-lumazine], the figures for the IC50 in assay [1] (setting [4]), in assay [2] (setting [5]) and in assay [3] (setting [6]) were 2100 nM, 4200 nM and 5600 nM, respectively.
`CCOC(=O)CCCn1c(=O)c2nc(-c3ccccc3)c(Br)nc2n(C)c1=O` [Example 70, 7-bromo-3-(ethyl butyrate)-1-methyl-6-phenyl-lumazine]: the half-maximal inhibitory concentration (IC50) in assay [1] (setting [4]) was determined as 3500 nM; in assay [2] (setting [5]) it was 5000 nM; in assay [3] (setting [6]), 5500 nM.
The corresponding values for `COc1ccc(-c2nc3c(=O)n(CCO)c(=O)n(C)c3nc2Cl)cc1OC` [Example 64, 7-chloro-6-(3,4-dimethoxyphenyl)-3-(2-hydroxyethyl)-1-methyl-lumazine] are 500 nM, 5700 nM and 700 nM.
The corresponding values for `CCOC(=O)CCCn1c(=O)c2nc(-c3ccc(OC)cc3)c(Br)nc2n(C)c1=O` [Example 80, 7-bromo-3-(ethylbutyrate)-1-methyl-6-(4-methoxyphenyl)-lumazine] are 6400 nM, 5600 nM and 2100 nM.
As to `Cn1c(=O)n(CCCC#N)c(=O)c2nc(-c3ccccc3)c(Cl)nc21` [Example 67, 3-butyronitrile-7-chloro-1-methyl-6-phenyl-lumazine], the values for the IC50 in assay [1] (setting [4]), in assay [2] (setting [5]) and in assay [3] (setting [6]) were 600 nM, 4800 nM and 700 nM, respectively.
The corresponding values for `CCOC(=O)CCCn1c(=O)c2nc(-c3ccc(OC)cc3)c(Cl)nc2n(C)c1=O` [Example 73, 7-chloro-3-(ethyl butyrate)-1-methyl-6-(4-methoxyphenyl)-lumazine] are 500 nM, 4900 nM and 600 nM.
As for `Cn1c(=O)[nH]c(=O)c2nc(-c3ccc(C#N)cc3)c(Cl)nc21` [Example 48, 7-chloro6-(4-cyanophenyl)-1-methyl-lumazine], the IC50 in assay [1] (setting [4]) is 400 nM; in assay [2] (setting [5]) it was 4300 nM; in assay [3] (setting [6]), 2500 nM.
Turning to `Cn1c(=O)c2nc(-c3ccccc3)c(Cl)nc2n(Cc2ccccc2)c1=O` [Example 61, 1-benzyl-7-chloro-3-methyl-6-phenyl-lumazine], the IC50 in assay [1] (setting [4]) was found to be 500 nM; in assay [2] (setting [5]) it was 3700 nM; in assay [3] (setting [6]) it was 700 nM.
The corresponding values for `CCCCOC(=O)NCCn1c(=O)c2nc(-c3ccccc3)c(Cl)nc2n(C)c1=O` [Example 75, 3-(2-butyloxycarbonyl-aminoethyl)-7-chloro-1-methyl-6-phenyl-lumazine] are 700 nM, 5100 nM and 3500 nM.
Consider `Cc1ccc(-c2nc3c(=O)[nH]c(=O)n(C)c3nc2Cl)cc1` [Example 52, 7-chloro-1-methyl-6-(4-methylphenyl)-lumazine], for which the IC50 in assay [2] (setting [5]) stood at 3500 nM; in assay [3] (setting [6]), 1100 nM.
For the compound `Cn1c(=O)n(CCO)c(=O)c2nc(-c3ccccc3)c(Cl)nc21` [Example 57, 7-chloro-3-(2-hydroxyethyl)-1-methyl-6-phenyl-lumazine], the IC50 is 700 nM in assay [1] (setting [4]), 5000 nM in assay [2] (setting [5]) and 400 nM in assay [3] (setting [6]).
As for `CCOC(=O)CCCn1c(=O)c2nc(-c3ccccc3)c(Cl)nc2n(-c2ccccc2)c1=O` [Example 65, 7-chloro-1,6-diphenyl-3-(ethyl butyrate)-lumazine], the values for the IC50 in assay [1] (setting [4]), in assay [2] (setting [5]) and in assay [3] (setting [6]) were 500 nM, 3800 nM and 800 nM, respectively.
On the same counts, the results for `CCOC(=O)CCCn1c(=O)c2nc(-c3ccc(OC)c(OC)c3)c(Cl)nc2n(C)c1=O` [Example 63, 7-chloro-6-(3,4-dimethoxyphenyl)-3-(ethyl butyrate)-1-methyl-lumazine] are 900 nM, 5700 nM and 600 nM.
On the same counts, the results for `O=c1[nH]c(=O)n(Cc2ccccc2)c2nc(Cl)c(-c3ccccc3)nc12` [Example 53, 7-chloro-1-benzyl-6-phenyl-lumazine] are 1200 nM, 4400 nM and 4500 nM.
On the same counts, the results for `Cn1c(=O)n(CCN2CCOCC2)c(=O)c2nc(-c3ccccc3)c(Cl)nc21` [Example 74, 7-chloro-1-methyl-3-(2-morpholinoethyl)-6-phenyl-lumazine] are 700 nM, 4200 nM and 2600 nM.
Take `COc1ccc(-c2nc3c(=O)[nH]c(=O)n(C)c3nc2Cl)cc1` [Example 15, 1-methyl-6-(4′-methoxyphenyl)-7-chloro-lumazine]: the figures for the IC50 in assay [1] (setting [7]), in assay [2] (setting [8]) and in assay [3] (setting [9]) were 400 nM, 3000 nM and 800 nM, respectively.
For `COc1cccc(-c2nc3c(=O)[nH]c(=O)n(C)c3nc2Cl)c1` [Example 43, 7-chloro-6-(3-methoxyphenyl)-1-methyl-lumazine], the IC50 in assay [1] (setting [4]) turned out to be 2000 nM; in assay [2] (setting [5]), 4900 nM; in assay [3] (setting [6]) it was 3700 nM.
Take `COc1ccc(-c2nc3c(=O)n(CCCC(=O)OC(C)C)c(=O)n(C)c3nc2Br)cc1OC` [Example 88, 7-bromo-6-(3,4-dimethoxyphenyl)-3-(isopropyl butyrate)-1-methyl-lumazine]: the figures for the IC50 in assay [1] (setting [4]), in assay [2] (setting [5]) and in assay [3] (setting [6]) were 7500 nM, 4700 nM and 700 nM, respectively.
On the same counts, the results for `CCn1c(=O)n(CCCC(=O)O)c(=O)c2nc(-c3ccccc3)c(Cl)nc21` [Example 86, 7-chloro-3-(n-butyric acid)-1-ethyl-6-phenyl-lumazine] are 2500 nM, 4600 nM and 8400 nM.
Turning to `Cn1c(=O)[nH]c(=O)c2nc(-c3ccccc3)c(Cl)nc21` [Example 14, 1-methyl-6-phenyl-7-chloro-lumazine], the IC50 in assay [1] (setting [7]) was 350 nM; in assay [2] (setting [8]), 4100 nM.
As for `Cn1c(=O)[nH]c(=O)c2nc(-c3ccc(Cl)cc3)c(Cl)nc21` [Example 54, 7-chloro-6-(4-chlorophenyl)-1-methyl-lumazine], the IC50 was determined as 500 nM in assay [1] (setting [4]) and 3800 nM in assay [3] (setting [6]).
Turning to `Cn1c(=O)c2nc(-c3ccccc3)c(Cl)nc2n(CCO)c1=O` [Example 62, 7-chloro-1-(2-hydroxyethyl)-3-methyl-6-phenyl-lumazine], the IC50 in assay [1] (setting [4]) is 600 nM; in assay [2] (setting [5]), 2500 nM; in assay [3] (setting [6]) it was 600 nM.
Turning to `COc1ccc(-c2nc3c(=O)[nH]c(=O)n(C)c3nc2Cl)cc1OC` [Example 41, 7-chloro-6-(3,4-dimethoxyphenyl)-1-methyl-lumazine], the figures for the IC50 in assay [1] (setting [4]), in assay [2] (setting [5]) and in assay [3] (setting [6]) were 700 nM, 5100 nM and 1700 nM, respectively.
Consider `O=c1[nH]c(=O)n(Cc2ccccc2)c2nc(Cl)c(-c3ccccc3)nc12` [Example 18, 1-benzyl-6-phenyl-7-chloro-lumazine], for which the values for the IC50 in assay [2] (setting [8]) and in assay [3] (setting [9]) were 4400 nM and 4500 nM, respectively.
Consider `Cn1c(=O)[nH]c2nc(Cl)c(-c3ccccc3)nc2c1=O` [Example 6, 3-methyl-6-phenyl-7-chloro-lumazine], for which the IC50 in assay [1] (setting [7]) turned out to be 400 nM; in assay [3] (setting [9]), 3000 nM.
With `Cn1c(=O)[nH]c(=O)c2nc(-c3ccc(Cl)cc3)c(Cl)nc21` [Example 20, 1-methyl-6-(4′-chlorophenyl)-7-chloro-lumazine], the IC50 stood at 400 nM in assay [1] (setting [7]) and 3800 nM in assay [3] (setting [9]).
`Cc1ccc(-c2nc3c(=O)[nH]c(=O)n(C)c3nc2Cl)cc1` [Example 16, 1-methyl-6-(4′-methylphenyl)-7-chloro-lumazine]: the figures for the IC50 in assay [2] (setting [8]) and in assay [3] (setting [9]) were 3600 nM and 1100 nM, respectively.
On the same counts, the results for `COc1ccc(-c2nc3c(=O)[nH]c(=O)n(C)c3nc2Cl)cc1OC` [Example 19, 1-methyl-6-(3′,4′-dimethoxyphenyl)-7-chloro-lumazine] are 5100 nM and 1100 nM.

In general, IC50 refers to the concentration needed to halve the response being measured.
